Measured values reported in the NIST ThermoML archive (doi:10.1016/j.jct.2004.09.017).

Columns and labels:
[1] = refractive index (Na D-line) (dimensionless); settings: 298.2 K; 101.33 kPa; Liquid
[2] = relative permittivity at various frequencies (dimensionless); settings: 298.2 K; 101.3 kPa; Liquid; Frequency=0.01 MHz; Wayne Kerr model 6425B Digibridge
[3] = relative permittivity at various frequencies (dimensionless); xn = mol fraction of the nth substance listed; settings: 298.2 K, 101.3 kPa, Liquid, Frequency=0.1 MHz, Wayne Kerr model 6425B Digibridge
[4] = refractive index (Na D-line) (dimensionless); xn = mol fraction of the nth substance listed; settings: 298.2 K, 101.3 kPa, Liquid

CCCCC(CC)CO (configuration not stated) [2-ethyl-1-hexanol]
Settings	refractive index	relative permittivity
[1]	1.4316	–
[2]	–	7.354

CCCCC(CC)CO (configuration not stated) [2-ethyl-1-hexanol] + CC(C)(C)O
Settings	refractive index, [4]	relative permittivity, [3]
x2 = 0	1.4316	7.354
x2 = 0.05	1.4304	7.487
x2 = 0.07	1.4298	7.598
x2 = 0.09	1.429	7.653
x2 = 0.1	1.4287	7.685
x2 = 0.2	1.427	8.057
x2 = 0.3	1.4235	8.506
x2 = 0.4	1.42	8.933
x2 = 0.5	1.4163	9.398
x2 = 0.6	1.4117	9.952

CCCCC(CC)CO (configuration not stated) [2-ethyl-1-hexanol] + CCCCO
Settings	refractive index, [4]	relative permittivity, [3]
x2 = 0	1.4316	7.354
x2 = 0.1	1.4291	8.21
x2 = 0.15	1.4278	8.682
x2 = 0.3	1.4238	10.48
x2 = 0.42	1.4214	11.42
x2 = 0.53	1.4182	12.01
x2 = 0.63	1.415	12.9
x2 = 0.72	1.412	14.34
x2 = 0.8	1.4088	15.21
x2 = 0.9	1.4036	16.41

CCCCC(CC)CO (configuration not stated) [2-ethyl-1-hexanol] + CCO
Settings	refractive index, [4]	relative permittivity, [3]
x2 = 0	1.4316	7.354
x2 = 0.12	1.4261	8.086
x2 = 0.23	1.4232	8.999
x2 = 0.32	1.4194	10.192
x2 = 0.4	1.4162	11.099
x2 = 0.47	1.4123	12.08
x2 = 0.53	1.4097	12.744
x2 = 0.64	1.4015	14.496
x2 = 0.7	1.3971	15.885
x2 = 0.82	1.386	18.259

CC(C)(C)O [2-methylpropan-2-ol]
Settings	refractive index	relative permittivity
[1]	1.3864	–
[2]	–	12.23

CC(C)(C)O [2-methylpropan-2-ol] + C1CCCCC1
Settings	refractive index, [4]	relative permittivity, [3]
x1 = 0.07	1.4241	2.051
x1 = 0.1	1.4226	2.058
x1 = 0.2	1.4179	2.089
x1 = 0.3	1.4138	2.308
x1 = 0.4	1.41	2.586
x1 = 0.5	1.4056	3.096
x1 = 0.6	1.4007	3.88
x1 = 0.8	1.3928	6.422

CC(C)(C)O [2-methylpropan-2-ol] + CCCCC(CC)CO
x1 = 1
Settings	refractive index	relative permittivity
[3]	–	12.23
[4]	1.3864	–

CCCCO [butan-1-ol]
Settings	refractive index	relative permittivity
[1]	1.3988	–
[2]	–	17.5

CCCCO [butan-1-ol] + CCCCC(CC)CO
x1 = 1
Settings	refractive index	relative permittivity
[3]	–	17.5
[4]	1.3988	–

C1CCCCC1 [cyclohexane] + CCCCO
Settings	refractive index, [4]	relative permittivity, [3]
x2 = 0.05	1.4206	2.439
x2 = 0.1	1.4191	2.683
x2 = 0.2	1.4162	3.112
x2 = 0.3	1.4132	3.952
x2 = 0.4	1.4109	4.888
x2 = 0.5	1.4085	6.713
x2 = 0.6	1.4061	8.451
x2 = 0.72	1.4035	10.848

C1CCCCC1 [cyclohexane] + CCO
Settings	refractive index, [4]	relative permittivity, [3]
x2 = 0.1	1.4235	2.155
x2 = 0.24	1.4179	2.571
x2 = 0.42	1.4103	4.223
x2 = 0.55	1.4032	6.462
x2 = 0.66	1.3953	8.974
x2 = 0.74	1.3887	11.249
x2 = 0.81	1.3813	13.878
x2 = 0.9	1.3733	17.89

CCO [ethanol]
Settings	refractive index	relative permittivity
[1]	1.3592	–
[2]	–	23.646

CCO [ethanol] + CCCCC(CC)CO
x1 = 1
Settings	refractive index	relative permittivity
[3]	–	23.646
[4]	1.3592	–
